We go through 18 molecules from PubChem BioAssay AID192 (DTP/NCI, 2004).

Several values for one entry are separate records, joined by “and”; a condition that tells them apart may be missing. Equal entries are not always repeated. Toxic doses and inconclusive results are not listed.

In the assay the test system is BDF1 mice, B16 melanoma ip, median survival T/C. Briefly: NCI In Vivo Anticancer Drug Screen. Data for tumor model B16 Melanoma (intraperitoneal) in B6D2F1 (BDF1) mice. The following applies: endpoint: median survival time, higher = longer survival. Summed up: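 Tumor-bearing mice received test compound or vehicle. Survival or tumor size was then measured in both groups. The treated-group figure was divided by the control-group figure.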

[1] abbreviates: dose: 100.0 mg/kg/injection, schedule: Q01DX009 (ip), vehicle: saline with Tween-80.
Where [2] appears, read: dose: 200.0 mg/kg/injection, schedule: Q01DX009 (ip), vehicle: saline with Tween-80.
[3] abbreviates: dose: 400.0 mg/kg/injection, schedule: Q01DX009 (ip), vehicle: saline with Tween-80.
The mark [4] stands for this setting: dose: 50.0 mg/kg/injection, schedule: Q01DX009 (ip), vehicle: Klucel (hydroxypropylcellulose) (HPC).
Setting [5] is: dose: 100.0 mg/kg/injection, schedule: Q01DX009 (ip), vehicle: Klucel (hydroxypropylcellulose) (HPC).
The mark [6] stands for this setting: dose: 100.0 mg/kg/injection, schedule: Q04DX003 (ip), vehicle: Klucel (hydroxypropylcellulose) (HPC).
Where [7] appears, read: dose: 12.5 mg/kg/injection, schedule: Q01DX009 (ip), vehicle: saline with Tween-80.
Where [8] appears, read: dose: 25.0 mg/kg/injection, schedule: Q01DX009 (ip), vehicle: saline with Tween-80.
[9] abbreviates: dose: 50.0 mg/kg/injection, schedule: Q01DX009 (ip), vehicle: saline with Tween-80.
The mark [10] stands for this setting: dose: 200.0 mg/kg/injection, schedule: Q01DX009 (ip), vehicle: Klucel (hydroxypropylcellulose) (HPC).
Setting [11] is: dose: 400.0 mg/kg/injection, schedule: Q01DX009 (ip), vehicle: Klucel (hydroxypropylcellulose) (HPC).

For `CC1=CCC2(C)C(=O)CC3(C)C(CCC4C5(C)CCC(=O)C(C)(C)C5CCC43C)C2C1C` (stereo not given), the T/C by setting is: (dose: 1.75 mg/kg/injection, schedule: Q01DX008 (ip), vehicle: saline) 100 % of control; (dose: 3.5 mg/kg/injection, schedule: Q01DX008 (ip), vehicle: saline) 100 % of control; (dose: 7.0 mg/kg/injection, schedule: Q01DX008 (ip), vehicle: saline) 94 % of control; (dose: 14.0 mg/kg/injection, schedule: Q01DX008 (ip), vehicle: saline) 99 % of control.

For `COC(CCC#N)c1ccc(Cl)cc1` (stereo not given), the T/C by setting is: under setting [1], 101 % of control; under setting [2], 96 % of control; under setting [3], 98 % of control.

With `CC(=O)Nc1ccc(NC(=O)c2ccc([As](O)O)cc2)cc1`, the T/C was 104 % of control (dose: 12.5 mg/kg/injection, schedule: Q01DX009 (ip), vehicle: Klucel (hydroxypropylcellulose) (HPC)); 105 % of control (dose: 25.0 mg/kg/injection, schedule: Q01DX009 (ip), vehicle: Klucel (hydroxypropylcellulose) (HPC)); 91 % of control under setting [4]; 105 % of control under setting [5].

On to `c1ccc(CN=C(c2ccccc2)c2ccccc2)cc1`, for which the T/C is, setting by setting: under setting [6], 100 % of control; (dose: 200.0 mg/kg/injection, schedule: Q04DX003 (ip), vehicle: Klucel (hydroxypropylcellulose) (HPC)) 95 % of control; (dose: 400.0 mg/kg/injection, schedule: Q04DX003 (ip), vehicle: Klucel (hydroxypropylcellulose) (HPC)) 100 % of control.

`c1ccc(C(C2=NCCN2)c2ccccc2)cc1`: the T/C reads like this: (dose: 25.0 mg/kg/injection, schedule: Q04DX003 (ip), vehicle: Klucel (hydroxypropylcellulose) (HPC)) 105 % of control; (dose: 50.0 mg/kg/injection, schedule: Q04DX003 (ip), vehicle: Klucel (hydroxypropylcellulose) (HPC)) 91 % of control; under setting [6], 95 % of control.

As to `CC(C)(C)N1C(=O)N(C(C)(C)C)C1=O`, the T/C (dose: 75.0 mg/kg/injection, schedule: Q01DX009 (ip), vehicle: other) was 102 % of control; the T/C (dose: 150.0 mg/kg/injection, schedule: Q01DX009 (ip), vehicle: other) was 105 % of control; the T/C (dose: 300.0 mg/kg/injection, schedule: Q01DX009 (ip), vehicle: other) was 102 % of control.

`C/C=C(\C)C(=O)O[C@@H]1c2cc3c(cc2-c2c(cc(OC)c(OC)c2OC)[C@@H]2C(=O)OC[C@@H]12)OCO3`: the T/C (dose: 1.25 mg/kg/injection, schedule: Q01DX009 (ip), vehicle: Klucel (hydroxypropylcellulose) (HPC)) was 101 % of control; the T/C (dose: 2.5 mg/kg/injection, schedule: Q01DX009 (ip), vehicle: Klucel (hydroxypropylcellulose) (HPC)) is 107 % of control; the T/C (dose: 5.0 mg/kg/injection, schedule: Q01DX009 (ip), vehicle: Klucel (hydroxypropylcellulose) (HPC)) is 92 % of control; the T/C (dose: 10.0 mg/kg/injection, schedule: Q01DX009 (ip), vehicle: Klucel (hydroxypropylcellulose) (HPC)) is 96 % of control.

For `O=Cc1ccc(C(Cl)(Cl)Cl)cc1`, the T/C by setting is: under setting [7], 91 % of control; under setting [8], 103 % of control; under setting [9], 101 % of control and 104 % of control; under setting [1], 106 % of control and 107 % of control; under setting [2], 103 % of control and 110 % of control.

`Cc1ccc([N+](=O)[O-])c(C)c1`: the T/C by setting is: under setting [5], 94 % of control; under setting [10], 102 % of control; under setting [11], 94 % of control.

Turning to `NC(CCl)=NCC12CC3CC(CC(C3)C1)C2`, the T/C (dose: 3.0 mg/kg/injection, schedule: Q01DX009 (ip), vehicle: Klucel (hydroxypropylcellulose) (HPC)) is 110 % of control; the T/C (dose: 3.12 mg/kg/injection, schedule: Q01DX009 (ip), vehicle: Klucel (hydroxypropylcellulose) (HPC)) is 100 % of control; the T/C (dose: 6.0 mg/kg/injection, schedule: Q01DX009 (ip), vehicle: Klucel (hydroxypropylcellulose) (HPC)) is 100 % of control; the T/C (dose: 12.0 mg/kg/injection, schedule: Q01DX009 (ip), vehicle: Klucel (hydroxypropylcellulose) (HPC)) is 107 % of control; the T/C (dose: 24.0 mg/kg/injection, schedule: Q01DX009 (ip), vehicle: Klucel (hydroxypropylcellulose) (HPC)) was 102 % of control; the T/C (dose: 48.0 mg/kg/injection, schedule: Q01DX009 (ip), vehicle: Klucel (hydroxypropylcellulose) (HPC)) is 120 % of control.

On to `Cc1ccc(S(=O)(=O)N2CCC(C(=O)O)(c3ccccc3)CC2)cc1`, for which the T/C is 113 % of control under setting [9], 99 % of control under setting [1] and 103 % of control under setting [2].

As for `C#CC(C)OCC1CNC(=S)O1` (stereo not given), the T/C reads like this: under setting [8], 100 % of control; under setting [9], 89 % of control; under setting [1], 97 % of control; under setting [3], 91 % of control.

Regarding `CCCCCCCCCCCC(=O)NC1CC(O[C@H]2C[C@](O)(C(=O)CO)Cc3c(O)c4c(c(O)c32)C(=O)c2c(OC)cccc2C4=O)OC(C)C1O` (stereo not given in full), the T/C is 119 % of control (dose: 12.5 mg/kg/injection, schedule: Q01DX001 (ip), vehicle: distilled water + Tween-80); 195 % of control (dose: 12.5 mg/kg/injection, schedule: Q01DX001 (ip), vehicle: water); 189 % of control (dose: 25.0 mg/kg/injection, schedule: Q01DX001 (ip), vehicle: distilled water + Tween-80); 233 % of control (dose: 25.0 mg/kg/injection, schedule: Q01DX001 (ip), vehicle: water); 195 % of control (dose: 50.0 mg/kg/injection, schedule: Q01DX001 (ip), vehicle: distilled water + Tween-80); 257 % of control (dose: 50.0 mg/kg/injection, schedule: Q01DX001 (ip), vehicle: water). The T/C is, setting by setting: (dose: 100.0 mg/kg/injection, schedule: Q01DX001 (ip), vehicle: distilled water + Tween-80) 258 % of control; (dose: 100.0 mg/kg/injection, schedule: Q01DX001 (ip), vehicle: water) 325 % of control; (dose: 200.0 mg/kg/injection, schedule: Q01DX001 (ip), vehicle: distilled water + Tween-80) 215 % of control; (dose: 200.0 mg/kg/injection, schedule: Q01DX001 (ip), vehicle: water) 104 % of control; (dose: 400.0 mg/kg/injection, schedule: Q01DX001 (ip), vehicle: distilled water + Tween-80) 231 % of control; (dose: 400.0 mg/kg/injection, schedule: Q01DX001 (ip), vehicle: water) 102 % of control.

In the case of `COc1cc2nc3cc([N+](=O)[O-])ccc3c(Cl)c2cc1OC`, the T/C is, setting by setting: under setting [4], 103 % of control; under setting [5], 96 % of control.

Turning to `COCCNCCOC`, the T/C was 118 % of control (dose: 160.0 mg/kg/injection, schedule: Q01DX009 (ip), vehicle: saline) and 121 % of control (dose: 370.0 mg/kg/injection, schedule: Q01DX009 (ip), vehicle: saline).

With `C[n+]1cccc(NC(=O)c2ccc(NC(=O)c3ccc(C(=O)Nc4ccc(NC(=N)N)cc4)cc3)cc2)c1`, the T/C by setting is: (dose: 0.9 mg/kg/injection, schedule: Q01DX009 (ip), vehicle: saline) 102 % of control; (dose: 1.3 mg/kg/injection, schedule: Q01DX009 (ip), vehicle: saline) 94 % of control; (dose: 2.0 mg/kg/injection, schedule: Q01DX009 (ip), vehicle: saline) 116 % of control.

As for `CCCCCCCCCCCC1=C(O)C(=O)C=C(O)C1=O`, the T/C was 102 % of control (dose: 6.25 mg/kg/injection, schedule: Q01DX009 (ip), vehicle: saline with Tween-80); 96 % of control under setting [7]; 86 % of control under setting [8].

As to `Cc1ccc(C)n1-c1ccccc1C(=O)O`, the T/C runs as follows: under setting [5], 106 % of control; under setting [10], 96 % of control; under setting [11], 90 % of control.
